Read-outs that look alike come from different tables or passages of the source. Bridge positions count the residues as written; N and C are the ends. Square brackets hold non-standard residues; d marks the D form. Peptide text beside a SMILES is read from it. R8 = C=CCCCCCC[C@@](C)(N)C(=O)O; S5 = C=CCCC[C@](C)(N)C(=O)O

The text below walks through data of article PMC11871066, “Structure-based discovery of hydrocarbon-stapled paxillin peptides that block FAK scaffolding in cancer” (Nature Communications, 2025).

For data set [1], the target named is trypsin (Bos taurus, UniProt P00760).
Procedure: (§1) Cell permeability of peptide drugs was determined by fluorescence measurement of TAMRA-labeled peptides in 96-well plates and ClarioStar Plus plate reader using BMG ClarioStar MARS software (version 4.20). […] Percent uptake was calculated as background-subtracted fluorescence absorbed by cells/fluorescence of peptide in media-only wells, then made relative to TAMRA-Alkyne. Three biological replicates (n = 3) were performed per cell line per treatment group. Peptide proteolysis was measured using immobilized Trypsin-agarose resin (Thermo Fisher) and quantification by LC-MS. […] In vivo pharmacokinetics were performed by the UACC Analytical Chemistry Shared Resource. […] The mice were fed NIH-31 irradiated pellets (Tekland Premier, Madison, Wisconsin), and reverse osmosis water was freely available. […] The average plasma concentration versus time data were analyzed using PKSolver (version 2.0) by a noncompartmental approach.
Data set [2] concerns trypsin. The data set can be described thus: in vitro. Conditions: isolated enzyme trypsin.
Procedure: as §1
In data set [3] the test system is trypsin. Kind of data set: Trypsin proteolytic resistance assay. The conditions noted are these: immobilized trypsin-agarose resin.
Procedure: as §1
Data set [4] addresses T1, FAK FAT domain (Homo sapiens, UniProt Q05397).
T1 sequence (Q05397 914-1045 limits assumed): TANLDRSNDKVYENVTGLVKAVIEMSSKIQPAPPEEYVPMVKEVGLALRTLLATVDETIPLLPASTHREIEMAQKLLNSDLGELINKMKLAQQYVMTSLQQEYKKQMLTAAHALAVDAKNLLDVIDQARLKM
The data set can be described thus: SPR binding to immobilized biotinylated FAK FAT. As for the experimental part:
SPR binding studies were performed using biotinylated FAK FAT protein[51]. Briefly, SPR binding assays were performed on a ForteBio Pioneer FE SPR system using SPR running buffer (100 mM Tris-Cl pH 8.0, 200 mM NaCl, and 0.05% Tween-20). […] Desired immobilization levels were determined utilizing the following Eq. 1:1 Rmax=RproteinxMranalyte/MrproteinxVprotein where Rmax is the highest possible response of binding between the analyte and the protein, Rprotein is the change in response by the immobilization of the protein, Mr represents the mass of the analyte or protein, and Vprotein represents the number of binding sites on the protein. A target Rmax of approximately 100 RU was chosen.
All samples were diluted in the SPR buffer to a volume of 200 µl and injected using the OneStep gradient injection system at a flow rate of 150 µl/min. For a bulk standard control, a 3% (w\v) solution of sucrose in SPR buffer was used for injection. […] SPR data analysis utilized Qdat software (ForteBio, version 4.3.2 build 8) for normalization of the baseline prior to injection, channel alignment, and reference channel and blank subtraction.

Data set [5] has as its target T2, FAK FAT / TAMRA-paxillin LD2 L10D (Homo sapiens, UniProt Q05397).
T2 construct: assay was performed using FAK FAT protein and TAMRA-LD2 L10D peptide
T2 sequence (Q05397 919-1052): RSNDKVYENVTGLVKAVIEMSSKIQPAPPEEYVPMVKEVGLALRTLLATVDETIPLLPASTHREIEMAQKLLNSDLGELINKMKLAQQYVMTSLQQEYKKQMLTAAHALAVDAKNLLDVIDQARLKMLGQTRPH
The data set can be described thus: Fluorescence polarization competition (FAK-paxillin) assay. It is filed as binding. As for the experimental part:
The IC50 was calculated using a four-parameter dose-response inhibition model, with the bottom fit constrained to the lower plateau of the binding curve.
A general note: In fluorescence polarisation assays a small probe gives low polarisation when free and higher when bound to something large.

Data set [6] is described as follows: Circular dichroism, % alpha-helicity. It is filed as physicochemical. The conditions noted are these: CD, 20 mM NaH2PO4 pH 7.0, 20 °C, CDSSTR. As for the experimental part: CD experiments were performed on a Jasco J-815 CD spectrometer equipped with a Jasco PTC-423S/15 temperature control and analysis utilizing Spectra Manager (version 2.0). Spectral measurements were made in quartz spectrophotometer cells with an optical cell path length of 1.0 mm (Starna Cells Inc.) using standard collection parameters: 20 °C, 190–260 nm, 0.5 nm step resolution, 50 nm/min scanning speed, 0.5 s response, 1 nm bandwidth, 8 accumulations. […] Secondary structure analysis, including % alpha-helicity, was performed using the CDSSTR method[58] on data reference set 4 basis spectra. The reliability of secondary structure predictions was quantified by the goodness-of-fit of the back-calculated spectrum to the experimental spectrum and reported as a normalized root-mean-square deviation (NRMSD).
For orientation: CD spectra are sensitive to the conformation of chiral molecules.

trypsin (Bos taurus, UniProt P00760), sequence (P00760 24-246): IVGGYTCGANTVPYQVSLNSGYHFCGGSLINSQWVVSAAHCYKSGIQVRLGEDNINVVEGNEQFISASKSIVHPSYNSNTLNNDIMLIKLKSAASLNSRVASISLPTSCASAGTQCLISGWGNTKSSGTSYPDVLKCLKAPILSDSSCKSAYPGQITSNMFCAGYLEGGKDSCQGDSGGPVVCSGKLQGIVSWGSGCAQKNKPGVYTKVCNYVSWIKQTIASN

Turning to `CC(=O)N[C@@H](CC(N)=O)C(=O)N[C@@H](CC(C)C)C(=O)N[C@@H](CO)C(=O)N[C@@H](CCC(=O)O)C(=O)N[C@@H](CC(C)C)C(=O)N[C@@H](CC(=O)O)C(=O)N[C@@H](CCCNC(=N)N)C(=O)N[C@@H](CC(C)C)C(=O)N[C@@H](CC(C)C)C(=O)N[C@@H](CC(C)C)C(=O)N[C@@H](CCC(=O)O)C(=O)N[C@@H](CC(C)C)C(=O)N[C@@H](CC(N)=O)C(N)=O` [LD2, reference compound], the “trypsin proteolysis t1/2” value in data set [1] came out at 46.8 min. In data set [2], this compound registered a half-life at 100 µM of 47 min. Also, in data set [3], the share remaining at 0.25 h, 100 µM came out at 76%; the amount remaining at 0.5 h, 100 µM was 70%; the amount remaining at 1 h, 100 µM is 29%; the share remaining at 2 h, 100 µM was determined as 16%. In data set [3], this compound displayed a fraction remaining at 3 h, 100 µM of 16%; a fraction remaining at 4 h, 100 µM of 13%; a fraction remaining at 6 h, 100 µM of 0%; an amount remaining at 7 h, 100 µM of 0%. In data set [3], this compound came in with an amount remaining at 24 h, 100 µM of 0% and a fraction remaining at 48 h, 100 µM of 0%.
As for `CC(=O)N[C@]1(C)CCCCCCC=CCCC[C@@](C)(C(N)=O)NC(=O)[C@H](CC(C)C)NC(=O)[C@H](CC(C)C)NC(=O)[C@H](CCCNC(=N)N)NC(=O)[C@H](CC(=O)O)NC(=O)[C@H](CC(C)C)NC(=O)[C@H](CCC(=O)O)NC1=O` [compound 2011] (Ac-[R8]ELDRLL[S5]-NH2; staple 1-8), the Kd was > 200 µM in data set [4] (Rep1, read-out: SPR (KD)); > 200 µM in data set [4] (Rep2, read-out: SPR (KD)); > 200 µM in data set [4] (Rep3, read-out: SPR (KD)); > 200 µM in data set [4] (read-out: SPR KD, pH 8). Moreover, the inhibition constant Ki in data set [5] is > 333 µM; in data set [5] (Rep2, read-out: FP (Ki) data) it was > 333 µM.
Regarding `C=CCCCCCC[C@@](C)(NC(=O)[C@H](CC(C)C)NC(=O)[C@H](CC(N)=O)NC(C)=O)C(=O)N[C@@H](CCC(=O)O)C(=O)N[C@@H](CC(C)C)C(=O)N[C@@H](CC(=O)O)C(=O)N[C@@H](CCCNC(=N)N)C(=O)N[C@@H](CC(C)C)C(=O)N[C@@H](CC(C)C)C(=O)N[C@@](C)(CCCC=C)C(=O)N[C@@H](CCC(=O)O)C(=O)N[C@@H](CC(C)C)C(=O)N[C@@H](CC(N)=O)C(N)=O` [compound 2013], the dissociation constant (Kd) in data set [4] (Rep2, read-out: SPR (KD)) was 35.6 µM. Further, the helical content in data set [6] is 70%.
As to `CC(=O)N[C@@H](CC(N)=O)C(=O)N[C@@H](CC(C)C)C(=O)N[C@]1(C)CCCCCCC=CCCC[C@@](C)(C(=O)N[C@@H](CCC(=O)O)C(=O)N[C@@H](CCC(=O)O)C(=O)N[C@@H](CC(N)=O)C(N)=O)NC(=O)[C@H](CC(C)C)NC(=O)[C@H](CC(C)C)NC(=O)[C@H](CCCNC(=N)N)NC(=O)[C@H](CC(=O)O)NC(=O)[C@H](CCC(=O)O)NC(=O)[C@H](CCC(=O)O)NC1=O` [compound 2014] (Ac-NL[R8]EEDRLL[S5]EEN-NH2; staple 3-10), the dissociation constant (Kd) in data set [4] (Rep1, read-out: SPR (KD)) was > 200 µM; in data set [4] (Rep2, read-out: SPR (KD)), > 200 µM; in data set [4] (Rep3, read-out: SPR (KD)), > 200 µM; in data set [4] (Rep4, read-out: SPR (KD)), > 200 µM; in data set [4] (one-site kinetic fit, mean ± SD of n = 2-5 biological replicates, Tris pH 8.0, read-out: SPR KD), > 200 µM. Further, the “SPR KD” value in data set [4] (one-site kinetic fit, mean ± SD of n = 2-5 biological replicates, Tris pH 8.0) is given as “did not bind FAT”. In addition, the “FP Ki” value in data set [5] (25 µM FAT, 0.1 µM probe, 3 h, mean ± SD, n = 3) was “did not bind FAT”. Further, in data set [5] (Rep1, read-out: FP (Ki) data), the inhibitory constant (Ki) is > 1250 µM.

For orientation: half-life means the time in which the quantity being followed falls by half. A lower half-life goes with rapid decline. As a reminder, the amount remaining is the share of the starting amount still present when the sample was taken. A high value points to greater stability. As usually defined, the Kd is the constant that tells how readily two partners part at equilibrium. What is called Ki is a measure of affinity in units of concentration, obtained from inhibition or displacement.
